Results on 25 compounds are retold here after PubChem BioAssay (NCI).

Experiment in all cases: DTP human tumour cell line panel, 48 h
The test system of assay [1] is A549 NSCLC.
In assay [2] the test system is DMS 273 small cell lung.
For assay [3], the system named is HCT-116 colon.
The test system of assay [4] is HCT-15 colon.
Assay [5] deals with HOP-18 NSCLC.
The subject of assay [6] is M19-MEL melanoma.
Assay [7] concerns OVCAR-5 ovarian.
Assay [8] concerns SNB-78 CNS.
The test system of assay [9] is SR leukemia.
Assay [10] has as its system XF 498 CNS.

Several values for one entry are separate records, joined by “and”; a condition that tells them apart may be missing. Equal values may be shown once.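 Grown in 96-well plates, cells were treated for 48 hours with each compound at five concentrations. Insufficient inhibition: endpoint recorded as highest concentration tested. Abbreviation: GI50, concentration required for 50% inhibition of growth. TGI marks complete inhibition of growth.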

Usually TGI stands for the concentration giving total growth inhibition. Read a high TGI as less potent growth arrest. As to `CCC1CCc2c(c(=O)oc3c2cc(OC)c2cccc(OC)c23)C1` (stereo not drawn), the TGI in assay [1], in [2], in assay [3], in assay [4], in assay [5] and in [6] was above 100 µM throughout. The TGI was above 100 µM in assay [7], above 100 µM in assay [8], above 100 µM in [9] and 78.6 µM in assay [10].
`O=C1OCC2C1C1c3ccccc3C(O)c3ccccc3C21` (stereo not drawn): the TGI in [1], in assay [3], in assay [4], in assay [5], in [6] and in assay [7] was above 100 µM each time. Also, the TGI in assay [8], in [9] and in assay [10] was above 100 µM throughout.
With `CC(C)C(=O)NS(=O)(=O)c1ccccc1`, the TGI in [1], in [3], in assay [5], in assay [6], in assay [7] and in [8] was above 100 µM throughout. The TGI in assay [9] and in assay [10] was above 100 µM throughout.
For the compound `Cc1c(/C=N/NC(=O)c2ccc(Cl)cc2)c(=O)n(-c2ccccc2)n1C`, the TGI in assay [1], in assay [2], in assay [3], in [4], in [5] and in [6] was above 100 µM throughout. For the same compound, the TGI in assay [8] and in assay [9] was above 100 µM each time.
For `O=P1(c2ccccc2)CCCCC1`, the TGI in [1], in [2], in assay [3], in [4], in assay [5] and in assay [7] was above 100 µM each time. Moreover, the TGI in [8] and in assay [9] was above 100 µM throughout.
A word on the GI50: it is the concentration giving 50% growth inhibition. On to `O=C(O)CC(NC(=O)CP(=O)(O)O)C(=O)O` (stereo not drawn), for which the GI50 was 95.7 µM in assay [1] and 54.6 µM in assay [3]. Besides, the TGI in [1] was 4250 µM; in assay [2] it was above 9020 µM; in assay [3], above 10000 µM; in assay [4], 9160 µM; in assay [5], above 9690 µM; in [6], above 10000 µM. The concentration for total growth inhibition (TGI) in assay [7] is above 10000 µM; in assay [8], above 10000 µM; in assay [10], above 3160 µM.
For `CC(C)C(=O)Nc1nc2c(ncn2C2OC(CO)C(O)C2O)c(=O)[nH]1` (stereo not drawn), the total growth inhibition concentration (TGI) in [1], in assay [2], in assay [3], in assay [4], in assay [5] and in [6] was above 100 µM each time. Moreover, the TGI in [7], in assay [8], in assay [9] and in [10] was above 100 µM in each case.
Take `COc1cc2c(OC)cc1CSCc1sc(C)c(c1Br)CSC2`: the TGI in assay [1], in assay [2], in assay [3], in assay [4], in assay [5] and in [6] was above 100 µM throughout. Besides, the TGI in [7], in assay [8], in assay [9] and in assay [10] was above 100 µM in each case.
Consider `CC1COC(C)(C)P(=O)(c2ccccc2)C1` (stereo not drawn), for which the TGI in assay [1], in assay [2], in assay [3], in assay [4], in assay [5] and in [6] was above 100 µM each time. Moreover, the TGI in [7], in assay [8], in [9] and in assay [10] was above 100 µM throughout.
`CCOP(=O)(OCC)OC1C=CC2CCC1C2` (stereo not drawn): the TGI in assay [1], in assay [2], in assay [3], in [4], in [5] and in assay [7] was above 100 µM in each case. The values for the TGI in assay [8], in [9] and in assay [10] were above 100 µM, 58.7 µM and above 100 µM, respectively.
Regarding `COC1(OC)CC2C(=O)N(Cc3ccccc3)C1C=C2S(=O)(=O)c1ccccc1` (stereo not drawn), the TGI in assay [1] worked out at 64.2 µM; in [3], 26.7 µM; in [5], 31.9 µM; in assay [6], 30.4 µM; in assay [8] it was 74.4 µM; in assay [9], 46.3 µM. The compound also gave a concentration for total growth inhibition (TGI) in assay [10] of 31.7 µM.
Turning to `Cc1ccc(S(=O)(=O)c2ccc(N)cc2)cc1`, the TGI in assay [1], in assay [2], in [3], in assay [4], in [6] and in assay [7] was above 100 µM throughout. For the same compound, the TGI in assay [8] and in [10] was above 100 µM in each case.
For `COC(=O)/C=C/c1c(CC=C(C)C)ncn1C`, the TGI in [1], in assay [2], in assay [3], in assay [4], in assay [5] and in [6] was above 100 µM each time. The TGI in assay [7], in assay [8], in assay [9] and in [10] was above 100 µM in each case.
For the compound `COC(=O)[C@H]1C=C[C@@H](C)n2c(=O)c3cc4ccccc4cc3c(=O)n21`, the TGI in [1], in [2], in assay [3], in [4], in assay [6] and in assay [7] was above 100 µM in each case. The TGI in assay [8], in assay [9] and in [10] was above 100 µM each time.
In the case of `CC[C@H]1CN2CCc3cc(OC)c(OC)cc3[C@@H]2C[C@@H]1C[C@H]1NCCc2c1[nH]c1ccc(O)cc21`, the GI50 in assay [1] is 0.0192 µM and 0.0336 µM; in [2] it was 0.0261 µM; in [3] it was 0.0196 µM and 0.0409 µM; in assay [4], 0.688 µM; in assay [5], 0.188 µM and 0.0283 µM; in [6] it was 0.0164 µM and 0.0241 µM. The GI50 is 0.0246 µM and 0.0401 µM in [7]; 0.0273 µM and 0.0257 µM in assay [8]; 0.0152 µM and 0.0333 µM in assay [9]; 0.0415 µM in assay [10]. Further, the total growth inhibition concentration (TGI) in assay [1] was 0.0627 µM and 0.121 µM and 0.321 µM; in assay [2], 0.084 µM and 0.024 µM; in [3], 0.0475 µM and 0.207 µM and 0.195 µM; in [4], 5.38 µM and 4.1 µM; in assay [5] it was 0.711 µM and 0.0824 µM and 0.449 µM; in assay [6], 0.0461 µM and 0.076 µM and < 0.0112 µM. In addition, the TGI is 0.091 µM and 0.335 µM and 0.379 µM in assay [7]; 0.0828 µM and 0.0713 µM and 0.11 µM in assay [8]; 0.0586 µM and 0.268 µM in assay [10].
In the case of `Cc1ccc(NC(=O)CSc2nnc(-c3ccc(N=Cc4ccc(Cl)cc4)cc3)o2)cc1`, the TGI in assay [1], in assay [2], in assay [3], in [4], in [5] and in [6] was above 100 µM throughout. In addition, the TGI in [8], in [9] and in assay [10] was above 100 µM in each case.
On to `N#CC(C(=O)C(=O)Nc1ccc(Cl)cc1)c1ccccc1` (stereo not drawn), for which the total growth inhibition concentration (TGI) in assay [1], in [2], in assay [3], in [4], in assay [5] and in assay [6] was above 100 µM throughout. Besides, the TGI in assay [7], in assay [8] and in [9] was above 100 µM each time.
`COc1cc(C=O)c(-c2cc(OC)c(OC)cc2C=O)cc1OC`: the TGI in [1], in assay [2], in assay [3], in [4], in assay [5] and in assay [6] was above 100 µM in each case. Further, the TGI in [7] is above 100 µM; in assay [8], above 100 µM; in [9], 88.9 µM.
With `CCCO/S(=N\S(=O)(=O)c1ccccc1)c1ccccc1[N+](=O)[O-]` (stereo not drawn), the TGI in assay [1], in [2], in assay [3], in assay [4], in assay [6] and in assay [7] was above 100 µM throughout. The TGI in assay [8], in assay [9] and in assay [10] was above 100 µM throughout.
Regarding `CC(C)N(CCn1c2c3ccccc3ccc2c2oc(=O)c3ccccc3c21)C(C)C`, the TGI in assay [1] was above 100 µM; in assay [3], above 100 µM; in assay [4], above 100 µM; in [5], above 86.6 µM; in [6] it was above 100 µM; in [7] it was above 100 µM. In addition, the TGI in [8], in [9] and in assay [10] was above 100 µM in each case.
As to `C/C(CC(=O)Nc1cccc(Cl)c1C)=N\NC(=O)c1ccncc1`, the TGI in assay [1], in [2], in assay [3], in assay [6], in assay [7] and in assay [8] was above 100 µM each time. The total growth inhibition concentration (TGI) in assay [10] is above 100 µM.
For the compound `Cc1cc(C)nc(NS(=O)(=O)c2ccc(NC(=O)c3cccc4c(Nc5ccc(S(N)(=O)=O)cc5)c5ccccc5nc34)cc2)n1`, the TGI in [1] is above 100 µM; in assay [2] it was above 100 µM; in [3], 21.7 µM; in assay [4] it was above 100 µM; in [5], above 100 µM; in [6], 46.5 µM. The TGI is above 100 µM in [7], 52.3 µM in assay [8] and 88.2 µM in [10].
Consider `COc1c[c]([Hg][O]C(C)=O)c(OC)c(NC(=O)CC(C)=O)[c]1[Hg][O]C(C)=O`, for which the GI50 is 26 µM in assay [1]; 13.6 µM in assay [2]; 13.1 µM in assay [3]; 3.11 µM in assay [4]; 1.96 µM in assay [5]; 8.85 µM in assay [6]. The GI50 is 19.3 µM in assay [7], 2.59 µM in assay [9] and 1.65 µM in assay [10]. In addition, the TGI was 45.9 µM in assay [1]; 36.7 µM in assay [2]; 34.8 µM in assay [3]; 4.62 µM in assay [5]; 22 µM in [6]; 33.7 µM in assay [7]. For the same compound, the TGI is above 100 µM in [9] and 3.2 µM in assay [10].
Turning to `O=C(/C=C/c1ccccc1Cl)NC1C=Nc2ccc([N+](=O)[O-])cc2NC1` (stereo not drawn), the TGI in assay [1], in [2], in [3], in assay [4], in assay [5] and in assay [6] was above 100 µM throughout. For the same compound, the TGI was above 100 µM in [7], above 100 µM in assay [8], 96.2 µM in [9] and above 100 µM in assay [10].
In the case of `O=Cc1ccc2c(c1-c1c(C=O)ccc3c1OCO3)OCO2`, the TGI in assay [1], in [2], in [3], in [4], in assay [5] and in [6] was above 100 µM each time. Also, the TGI in assay [7], in [8] and in assay [9] was above 100 µM each time.
